Data set [1] can be described thus: Solubility of TBA in solvent with or without DMSO. In kind it is physicochemical. The protocol: In the prior art (Korean Patent Laid-open No. 10-2013-0088623), the amount of TBA added was only 2 to 3%.
In the conventional published Patent No. 10-2013-0088623, the addition of 2 to 3 parts by weight of 1,3-diethyl-2-thiobarbituric acid (TBA) was determined to be an appropriate concentration with respect to 100 parts by weight of distilled water due to the solubility problem of TBA thereof. However, in the present invention, the solubility problem of TBA is solved by adding DMSO. By adding DMSO, 3.5 parts or more by weight of TBA can be dissolved in 100 parts by weight of distilled water or ethanol.
In the present example, DMSO (dimethyl sulfoxide) was added to the TBA solution. […] DMSO is an important solvent that dissolves both polar and nonpolar compounds, and can be used in combination with various organic solvents as well as water.
It was difficult to dissolve TBA in an amount of 3.5 parts by weight or more based on 100 parts by weight of the solvent in accordance with the method of the conventional art disclosed in published Patent No. 10-2013-0088623, and although dissolved, TBA was precipitated during the process.

Data set [2] is described as follows: Crystallization of TBA-containing solution depending on amount of DMSO added (test paper, room temperature). In kind it is physicochemical. To be noted: test paper immersed in TBA solution, standing at room temperature, increasing amount of DMSO (FIG. 1). The source says: FIG. 1 is an image showing crystallization of a solution containing TBA as a color indicator depending on the amount of DMSO added.

Each structure is given as a SMILES string.

Consider one compound from US11385220B2, “Methods for measuring oxidative stress in human body fluids” (CHUNGDO PHARM. CO., LTD, priority 2017, dated 2022).

Turning to `CCN1C(=O)CC(=O)N(CC)C1=S` [TBA, 1,3-diethyl-2-thiobarbituric acid], the “TBA dissolved in distilled water” value in data set [1] (distilled water, no DMSO) is “not dissolved in distilled water”. The “TBA dissolved in ethanol” value in data set [1] (ethanol, no DMSO) is listed as “about 3.5%”. For the same compound, the “amount of TBA that can be dissolved by the conventional method” value in data set [1] (per 100 parts by weight of solvent, no DMSO (method of KR 10-2013-0088623), precipitated during the process) was under 3.5 parts by weight. Moreover, in data set [2], the TBA recrystallization entry was “TBA recrystallization decreased”.
